Data reported in US20060222617A1, “Water-soluble cosmetic composition and method for manufacturing the same” (Taiyen Biotech. Co. Ltd., priority 2005, published 2006).
Like-named read-outs stand apart in the source and are kept apart here.

Method: A lyophilizated product solubility test and a stability test are conducted to compare the cosmetic composition of the present invention with the start materials of the cosmetic composition.

O=C1O[C@H]([C@@H](O)CO)C([O-])=C1OP(=O)([O-])[O-].O=C1O[C@H]([C@@H](O)CO)C([O-])=C1OP(=O)([O-])[O-].[Mg+2].[Mg+2].[Mg+2] [Magnesium ascorbyl phosphate, magnesium ascorbyl phosphate]
Solubility (after processing the cosmetic composition (lyophilized with water-soluble collagen, rehydrated with the amount of water removed)): 2 wt %
Solubility (start materials of the cosmetic composition (without processing)): 0.5 wt %
